Results: the NIST ThermoML archive (doi:10.1021/acs.jced.5b00944)
Numbers after ± are expanded uncertainties.

Tests used:
[1] = for speed of sound / mass density: 100 kPa, Liquid; for speed of sound: Sing-around technique in a fixed-path interferometer; for mass density: Vibrating tube method; for surface tension liquid-gas: Capillary rise
[2] = xn = mol fraction of the nth substance listed; conditions: x1 = 1; for surface tension liquid-gas: Capillary rise; for speed of sound: Sing-around technique in a fixed-path interferometer

CCCC[N+]1(C)CCCC1.N#CN=C=[N-] [1-butyl-1-methylpyrrolidinium dicyanamide]
[1]
Conditions	mass density [kg/m3]	speed of sound [m/s]
288.15 K	1019.11 ± 0.88	1834.4 ± 2.2
298.15 K	1013.48 ± 0.86	1809.6 ± 2.2
308.15 K	1007.82 ± 0.85	1785.2 ± 2.2
318.15 K	1002.33 ± 0.84	1761 ± 2.2
333.15 K	994.14 ± 0.83	1724.7 ± 2.2

O [water]
[1]
Conditions	speed of sound [m/s]	surface tension liquid-gas [mN/m]
297.7 K	–	71.9 ± 1.2
304.8 K	–	70.6 ± 1.2
313.2 K	–	69.5 ± 1.2
318.15 K	1536.7 ± 0.9	–
324.1 K	–	67.6 ± 1.2
333.15 K	1551.3 ± 0.9	–

O [water] + CCCC[N+]1(C)CCCC1.N#CN=C=[N-]
[2]
Conditions	surface tension liquid-gas [mN/m]
297.7 K	71.9 ± 1.2
304.8 K	70.6 ± 1.2
313.2 K	69.5 ± 1.2
324.1 K	67.6 ± 1.2

[2], 100 kPa, Liquid
Conditions	speed of sound [m/s]
318.15 K	1536.7 ± 0.9
333.15 K	1551.3 ± 0.9

Conditions	mass density [kg/m3]
[2], 333.15 K, 100 kPa, Liquid, Vibrating tube method	983.19 ± 4
